Measured values published in patent US8436185B2, “Pharmaceutically acceptable salts of 2-{4-[(3S)-piperidin-3-yl]phenyl}-2H-indazole-7-carboxamide” (Merck Sharp & Dohme Corp., priority 2008, dated 2013).

Experiments:
PARP = conditions: rabbits, cited from earlier work
[1] = for Hygroscopicity (at 25° C.): in words

SMILES | reduction in infarct size (PARP; single injection 1 mg/kg) | reduction in infarct size in the heart (PARP; single injection 10 mg/kg, one minute before occlusion or before reperfusion) | moisture to 50% RH ([1]; 25° C., to 50% RH) [%] | moisture adsorbed to 95% RH ([1]; 25° C.) | Hygroscopicity (at 25° C.) [1]
Oc1cccc2c(O)nccc12 [1,5-dihydroxyisoquinoline] | 38-48% | – | – | – | –
NC(=O)c1cccc(N)c1 [3-amino-benzamide] | – | 32-42% | – | – | –
Cl.NC(=O)c1cccc2cn(-c3ccc([C@@H]4CCCNC4)cc3)nc12 [Chloride salt, (3S)-3-[4-[7-(Aminocarbonyl)-2H-indazol-2-yl]phenyl]piperidinium chloride] | – | – | 10 | 60% moisture to 95% RH) | Highly hygroscopic
Cc1ccc(S(=O)(=O)O)cc1.NC(=O)c1cccc2cn(-c3ccc([C@@H]4CCCNC4)cc3)nc12 [Example 1, (3S)-3-{4-[7-(Aminocarbonyl)-2H-indazol-2-yl]phenyl}piperidinium 4-methylbenzenesulfonate] | – | – | – | 0.3% | Non-hygroscopic
